According to US20190374509A1, “Methods of Using Metamizole for Treatment of Pyrexia in Equines” (Kindred Biosciences, Inc., priority 2018, published 2019):

What was measured:
Format in all cases: in vivo
[1] = system: horses; assay: Coagulation effects study, IV BID or TID for 9 days: clinical signs
Description: (§1) The purpose of this study was to evaluate the effects of metamizole on coagulation parameters and pharmacokinetic parameters when administered intravenously to horses for 9 days at doses of 0 mg/kg (0×), 30 mg/kg (1×), 60 mg/kg (2×), and 90 mg/kg (3×) of body weight. Doses of 0×, 1×, 2×, and 3× were administered twice daily (BID), every 12 hours±120 min. Doses of 1× and 2× were administered three times daily (TID), every 8 hours±120 min. Metamizole plasma concentrations were assessed in the 1×BID, 3×BID, 1×TID, and 2×TID treatments groups to evaluate for evidence of accumulation.
(§2) The investigational drug was a sterile injectable formulation of dipyrone (Zimeta®, Corden Pharma, Caponago, Italy) (500 mg/mL) in 100 mL glass bottles. The placebo was sterile injectable saline (0.9% Saline, Nova-Tech Inc, Grand Island, NE) (0.9% sodium chloride) in 500 mL plastic bottles labeled for veterinary use. Dipyrone treatment groups were 30 mg/kg/dose (1×) administered twice daily (BID), 1× administered three times daily (TID), 60 mg/kg/dose (2×) BID, 2×TID, and 90 mg/kg/dose (3×) BID. Placebo treatment group, (0×) BID, were saline administered at a volume to match the 1× dipyrone group. The dose was calculated based on body weight and administered for nine consecutive days (Days 1-9). Due to the large volume of the injection at the higher test intervals, treatment was administered via indwelling intravenous catheters. Intravenous catheters were placed using standard techniques. Horses were sedated with xylazine (XylaMed™, VetOne, MWI, Boise, Id.) (0.6 mg/kg, IV) and the skin was desensitized with subcutaneous injection of lidocaine (Lidocaine 2%, VetOne, MWI, Boise, Id.). Intravenous catheters were replaced at the discretion of the study director and were maintained with heparinized saline flush prior to, and following, dose administration.
(§3) Horses were acclimated to the facility for 14 days prior to start of the treatment phase. […] On Day −1, thirty-two horses were randomized by the study statistician and moved to their assigned pens. On Day −1 (baseline), Day 4, and Day 10 horses had blood collected for a coagulation panel. A physical exam was performed prior to study start and on Day 10.

[2] = system: horses; assay: Coagulation effects study, IV BID or TID for 9 days: coagulation panel; conditions: for Prothrombin Time LSMEAN: in s; for Difference in Individual Horse Day 10 PT and Baseline PT: Day 10 PT minus highest baseline PT
Description: as §1
This was a prospective, randomized, masked, placebo-controlled, parallel-group laboratory study. The protocol was approved by the research laboratory's Institutional Animal Care and Use Committee (IACUC). The study was conducted in compliance with the principles of the relevant CVM Good Clinical Practices Guidelines. Horse care and housing was in compliance with Guide for the Care and Use of Agricultural Animals in Research and Teaching. The study was conducted at a research laboratory with extensive experience in regulatory studies of large animals in the United States.
as §2, §3
For continuous endpoints with repeated post-treatment measurements (coagulation), repeated measurement analysis of covariance (SAS MIXED procedure repeated measures of analysis of covariance (RMANCOVA)) were used to evaluate a model including treatment, time, sex, treatment by sex interaction, treatment by time interaction, time by sex interaction, and treatment by time by sex three-way interaction as fixed effects. In addition, baseline values were included as a covariate and remained in the model regardless of its significance. Baseline values were defined as the values prior to and nearest to the first dosing.

[3] = system: horses; assay: Pyrexia efficacy Study 2 (masked, randomized, placebo controlled, crossover, rectal temperature); conditions: for Mean (standard deviation) temperature: 30 mg/kg IV single dose
Description: Study 2: The masked, randomized, placebo controlled laboratory study was conducted at a clinical research organization in the United States. IACUC approval was obtained prior to the conduct of the study. Horses one year of age or older were comingled by the Investigator in order to facilitate transmission of respiratory infections. Horses were monitored by the study staff for elevation of rectal temperature. […] Unblinded dose administrators administered the study drug (Phase 1). A single dose of study drug was administered. Treatment was either dipyrone (30 mg/kg IV) or placebo (saline, matched volume, IV). Blinded personnel recorded the rectal temperature at 4 and 6 hours post-treatment administration. Twenty-four hours following Dose 1 horses were monitored for rectal temperature. Horses with rectal temperature≥102.0° F. were crossed over to the other treatment group. Unblinded dose administrators administered the study drug (Phase 2), and blinded personnel recorded the rectal temperature 4 and 6 hours post-treatment administration. […] Blinding was maintained until the completion of the statistical analysis.
In both studies horses were assessed daily to determine overall safety. Medications that could have impacted the temperature or the underlying cause of the disease were not permitted in either study; however, horses in both studies were eligible for rescue at the discretion of the Investigator. Following completion of the study, the Investigator treated the horses with standard of care for the type, and severity, of clinical signs. Statistical analysis was performed with the Wilcoxon rank sum test (SAS®, SAS Institute, Cary N.C., version 9.4).

[4] = 1X BID, 30 mg/kg IV twice daily, n = 6
[5] = 1X TID, 30 mg/kg IV three times daily, n = 4
[6] = 2X BID, 60 mg/kg IV twice daily, n = 6
[7] = 2X TID, 60 mg/kg IV three times daily, n = 6
[8] = 3X BID, 90 mg/kg IV twice daily, n = 6
[9] = all treatment groups (30-90 mg/kg IV BID or TID, 9 days)
[10] = 2X TID, 60 mg/kg IV three times daily
[11] = 3X BID, 90 mg/kg IV twice daily

Cc1c(N(C)CS(=O)(=O)O)c(=O)n(-c2ccccc2)n1C [dipyrone, [(2,3-dihydro-1,5-dimethyl-3-oxo-2-phenyl-1H-pyrazol-4-yl)methylamino] methanesulfonic acid]
Depression, number of horses [1, 4]: 0 | Dermatitis, number of horses [1, 4]: 0 | Minor gastrointestinal signs or inappetence, number of horses [1, 4]: 2 | Minor respiratory signs (nasal discharge and or cough), number of horses [1, 4]: 1 | Ocular discharge, number of horses [1, 4]: 0 | Phlebitis and other catheter-related changes to jugular vein, number of horses [1, 4]: 2 | Suture site abscesses, number of horses [1, 4]: 1 | Depression, number of horses [1, 5]: 0 | Dermatitis, number of horses [1, 5]: 0 | Minor gastrointestinal signs or inappetence, number of horses [1, 5]: 1 | Minor respiratory signs (nasal discharge and or cough), number of horses [1, 5]: 0 | Ocular discharge, number of horses [1, 5]: 0 | Phlebitis and other catheter-related changes to jugular vein, number of horses [1, 5]: 1 | Suture site abscesses, number of horses [1, 5]: 0 | Depression, number of horses [1, 6]: 0 | Dermatitis, number of horses [1, 6]: 0 | Minor gastrointestinal signs or inappetence, number of horses [1, 6]: 2 | Minor respiratory signs (nasal discharge and or cough), number of horses [1, 6]: 0 | Ocular discharge, number of horses [1, 6]: 1 | Phlebitis and other catheter-related changes to jugular vein, number of horses [1, 6]: 3 | Suture site abscesses, number of horses [1, 6]: 0 | Depression, number of horses [1, 7]: 1 | Dermatitis, number of horses [1, 7]: 0 | Minor gastrointestinal signs or inappetence, number of horses [1, 7]: 2 | Minor respiratory signs (nasal discharge and or cough), number of horses [1, 7]: 0 | Ocular discharge, number of horses [1, 7]: 0 | Phlebitis and other catheter-related changes to jugular vein, number of horses [1, 7]: 2 | Suture site abscesses, number of horses [1, 7]: 1 | Depression, number of horses [1, 8]: 0 | Dermatitis, number of horses [1, 8]: 1 | Minor gastrointestinal signs or inappetence, number of horses [1, 8]: 1 | Minor respiratory signs (nasal discharge and or cough), number of horses [1, 8]: 1 | Ocular discharge, number of horses [1, 8]: 0 | Phlebitis and other catheter-related changes to jugular vein, number of horses [1, 8]: 3 | Suture site abscesses, number of horses [1, 8]: 0 | Abnormal clinical signs in the treatment period [1, 9]: none were considered treatment related | Prothrombin Time LSMEAN ([2]; 1X BID, 30 mg/kg IV twice daily for 9 days): 13.407 | Prothrombin Time LSMEAN ([2]; 1X TID, 30 mg/kg IV three times daily for 9 days): 13.553 | Prothrombin Time LSMEAN ([2]; 2X BID, 60 mg/kg IV twice daily for 9 days): 13.469 | Prothrombin Time LSMEAN ([2]; 2X TID, 60 mg/kg IV three times daily for 9 days): 13.733 | Prothrombin Time Day 4 Range [2, 10]: 12.9 to 15.6 s | Prothrombin Time Day 10 Range [2, 10]: 13.2 to 16.6 s | Difference in Individual Horse Day 10 PT and Baseline PT [2, 10]: 0.1 to 0.5 s | Prothrombin Time LSMEAN ([2]; 3X BID, 90 mg/kg IV twice daily for 9 days): 14.238 | Prothrombin Time Day 4 Range [2, 11]: 13.2 to 14.5 s | Prothrombin Time Day 10 Range [2, 11]: 13.4 to 14.9 s | Difference in Individual Horse Day 10 PT and Baseline PT [2, 11]: 0.1 to 0.7 s | Activated partial thromboplastin time (APTT) or fibrinogen [2, 9]: No main treatment effect | Mean (standard deviation) temperature ([3]; Phase 1, hour 4): 100.0 ° F. | Mean (standard deviation) temperature ([3]; Phase 1, hour 6): 100.8 ° F. | Mean (standard deviation) temperature ([3]; Phase 2 (crossover), hour 4): 100.4 ° F. | Mean (standard deviation) temperature ([3]; Phase 2 (crossover), hour 6): 100.8 ° F. | Rectal temperature compared to controls ([3]; 30 mg/kg IV, both phases, Hour 4, p<0.0001): significantly lowered rectal temperatures
